{"source": "patent US9271946B2", "about": "“Use of a RAR antagonist or inverse agonist for the treatment of chemotherapy and/or radiation therapy side effects” (IO Therapeutics, Inc., priority 2006, dated 2016)", "key": {"[1]": {"test_system": "5-FU-induced neutropenic male BDF1 mice", "assay": "monotherapy and combination therapy on neutrophil recovery in 5-FU-induced neutropenic mice (Example 5)", "type": "in vivo, mouse", "experimental": "VTP194310 DMSO Stock solution was made by weighing out VTP194310 and dissolving it in DMSO (25 mg/1.33 ml DMSO).\nThe Vehicle solution was made by mixing 39.2 ml Corn Oil+0.8 ml DMSO.\nThe 3.0 mg/kg VTP194310 solution was made by mixing 39.2 ml Corn Oil+0.8 ml VTP 194310 DMSO Stock solution.\nThe 150 mg/kg 5-FU solution was made by weighing out 187.5 mg 5-FU and mixing it with 10 g saline.\nThe 10 μg/kg PEG-G-CSF solution was made by diluting 6 mg/ml stock with PBS.\nMale BDF1 mice (C57Bl×DBA2), 9 weeks old, DOB: 26 Jun. 2006) were used in this experiment.\nEach group of mice were treated with 150 mg/kg 5-FU intravenously on Day 0, vehicle or VTP194310 orally by gavage at 3 mg/kg/day on Days 2 to 4, and/or subcutaneously with PEG-G-CSF at 10 μg/kg on Days 5, 6, or 7 according to the regimens listed in the table. The mean numbers of total white blood cells (WBC), neutrophils, lymphocytes, red blood cells (RBC) and platelets and standard error (SE) of data obtained for each treated group are shown in FIG. 6."}, "RARγ": {"target": "T1, RARγ (Homo sapiens, UniProt P13631)", "T1 sequence (P13631 1-454)": "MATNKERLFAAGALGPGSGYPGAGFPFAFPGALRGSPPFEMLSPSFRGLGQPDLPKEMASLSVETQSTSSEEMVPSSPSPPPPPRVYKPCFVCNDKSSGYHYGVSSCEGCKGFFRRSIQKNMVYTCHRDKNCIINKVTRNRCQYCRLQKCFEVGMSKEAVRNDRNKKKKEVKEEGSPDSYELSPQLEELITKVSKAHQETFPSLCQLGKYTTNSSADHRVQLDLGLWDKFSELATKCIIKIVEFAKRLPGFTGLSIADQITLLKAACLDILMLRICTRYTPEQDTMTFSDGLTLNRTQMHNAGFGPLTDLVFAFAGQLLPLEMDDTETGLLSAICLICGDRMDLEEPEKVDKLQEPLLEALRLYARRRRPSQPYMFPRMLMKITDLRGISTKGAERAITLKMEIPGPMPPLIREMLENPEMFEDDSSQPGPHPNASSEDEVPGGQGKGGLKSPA", "assay": "binding to RARγ"}, "S. aureus MSSA 476": {"test_system": "S. aureus MSSA 476", "assay": "activity against S. aureus, growth on agar and in liquid culture", "type": "cell-based", "experimental": "(§1) The compound was analyzed at an appropriate concentration in several assays for activity against S. aureus EMRSA-16 252 and S. aureus MSSA 476."}, "S. aureus EMRSA-16 252": {"test_system": "S. aureus EMRSA-16 252", "assay": "activity against S. aureus, growth on agar and in liquid culture", "type": "cell-based", "experimental": "as §1"}, "RAR": {"test_system": "RAR", "assay": "transactivation assays", "type": "cell-based", "description": "An assay that can be used to determine the agonist activity in the RARα, RARβ and RARγ receptor subtypes is described in Feigner, P. L., and Holm, M., FOCUS, 11:2, 21+ (1989) and U.S. Pat. Nos. 5,455,265 and 7,166,726, all of which are incorporated herein by reference in their entirety."}, "[2]": {"test_system": "CPM-induced neutropenic male BDF1 mice", "assay": "mono-therapy and combination therapy on neutrophil recovery in CPM-induced neutropenic mice (Example 4)", "type": "in vivo, mouse", "experimental": "VTP 194310 DMSO stock solution was made by weighing out VTP 194310 and dissolved in DMSO (25 mg/1.33 ml DMSO). This stock solution was then mixed with Vehicle (39.2 ml Corn Oil+0.8 ml DMSO).\nThe 3.0 mg/kg VTP194310 solution was made by mixing 39.2 ml Corn Oil+0.8 ml VTP 194310 DMSO Stock.\nThe 1.0 mg/kg VTP194310 solution was made by diluting the VTP194310 DMSO Stock 1:3 with DMSO (e.g. 1 ml DMSO+0.5 ml 4310 Stock), and then combining 39.2 ml Corn Oil+0.8 ml of the diluted VTP194310 Stock.\nThe 1 and 10 μg/kg PEG-G-CSF solutions were made by diluting 6 mg/ml stock with PBS.\nMale BDF1 mice (C57Bl×DBA2), 7-8 weeks old, DOB: 1 Jun. 2006) were used in this experiment.\n35 μl of blood (via the submandibular vein) were collected according to the scheduled time points or until the full recovery of blood cells and platelets. The blood samples were analyzed after 1:5 dilution with PBS saline containing 2% BSA (Fraction V) and 0.2 mM EDTA on the Hematology Analyzer Cell-DYN 3700 (Abbott Diagnostics).\nEach group of mice were treated with vehicle, VTP 194310 at 3 mg/kg, PEG-G-CSF at 1 or 10 μg/kg, and CPM at 150 mg/kg. The mean numbers of total white blood cells (WBC), neutrophils, lymphocytes, red blood cells (RBC) and platelets and standard error (SE) for data obtained for each treated group are shown in FIG. 4. […] Combination treatment with VTP 194310 and PEG-G-CSF further increased recovery."}, "[3]": {"settings": "2 μM incorporated into the agar"}, "[4]": {"settings": "50 μl of 2 μM in agar-well-diffusion assay"}}, "data": [{"smiles": "CCc1ccc(C2=CC(C)(C)Sc3ccc(C#Cc4ccc(C(=O)O)cc4)cc32)cc1", "note": "[VTP 194310, 4-[[4-(4-ethylphenyl)-2,2-dimethyl-(2H)-thiochromen-6-yl]-ethynyl]-benzoic acid]", "values": [{"measurement": "effectiveness in enhancing neutrophil recovery compared to PEG-G-CSF", "setting": "[1]; 3 mg/kg/day Days 2 to 4 vs PEG-G-CSF 10 μg/kg Days 5, 6, or 7", "result": "more effective than PEG-G-CSF"}, {"measurement": "recovery of neutrophils relative to control", "setting": "[1]; monotherapy, 5-FU 150 mg/kg i.v. Day 0, VTP 194310 3 mg/kg/day oral Days 2 to 4, PEG-G-CSF 10 μg/kg s.c. Day 5, 6, or 7", "result": "improved the recovery of neutrophils"}, {"measurement": "Ki", "setting": "RARγ", "result": 5, "unit": "nM"}, {"measurement": "growth rate in liquid culture", "setting": "S. aureus MSSA 476; 2 μM", "result": "neither strain demonstrated any alteration in growth rate"}, {"measurement": "growth of bacteria on agar", "setting": "S. aureus MSSA 476; [3]", "result": "not inhibited"}, {"measurement": "growth of bacteria on agar", "setting": "S. aureus MSSA 476; [4]", "result": "not inhibited"}, {"measurement": "growth rate in liquid culture", "setting": "S. aureus EMRSA-16 252; 2 μM", "result": "neither strain demonstrated any alteration in growth rate"}, {"measurement": "growth of bacteria on agar", "setting": "S. aureus EMRSA-16 252; [3]", "result": "not inhibited"}, {"measurement": "growth of bacteria on agar", "setting": "S. aureus EMRSA-16 252; [4]", "result": "not inhibited"}, {"measurement": "activity in transactivation assays", "setting": "RAR; agonist activity", "result": "no activity"}, {"measurement": "gene transcriptional activity induced by ATRA and other RAR agonists", "setting": "RAR; antagonism", "result": "blocks the gene transcriptional activity"}, {"measurement": "effectiveness in enhancing neutrophil recovery compared to PEG-G-CSF at 10 μg/kg", "setting": "[2]; CPM-induced mouse model", "result": "similarly effective"}, {"measurement": "neutrophil recovery relative to control", "setting": "[2]; monotherapy, CPM 150 mg/kg Day 0, VTP 194310 1 or 3 mg/kg/day oral Days −1 to 1, PEG-G-CSF 1 or 10 μg/kg s.c. Day 2", "result": "enhanced neutrophil recovery"}]}]}
